# Assays:
# Assay in all cases: Test E pre-/postemergence plant response
# Format in all cases: in vivo
# [1] = tested on: broadleaf signalgrass (Brachiaria platyphylla); details: scale 0 to 100
# Outline: (§1)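 Greenhouse test. Compound, formulated in a non-phytotoxic solvent with surfactant, is applied preemergence to planted seeds and postemergence to 1- to 4-leaf plants of 2 to 18 cm. Plants are compared with controls after 14 to 21 days and scored 0 (no effect) to 100 (complete control).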
# [2] = tested on: naked crabgrass (Digitaria nuda); details: scale 0 to 100
# Outline: as §1
# [3] = tested on: pitted morningglory (Ipomoea lacunosa); details: scale 0 to 100
# Outline: as §1
# [4] = tested on: green foxtail (Setaria viridis); details: scale 0 to 100
# Outline: as §1
# [5] = tested on: johnsongrass (Sorghum halepense); details: scale 0 to 100
# Outline: as §1
# [6] = tested on: quackgrass (Elytrigia repens); details: scale 0 to 100
# Outline: as §1
# [7] = tested on: common groundsel (Senecio vulgaris); details: scale 0 to 100
# Outline: as §1
# [8] = tested on: itchgrass (Rottboellia cochinchinensis); details: scale 0 to 100
# Outline: as §1
# [9] = tested on: barnyardgrass (Echinochloa crus-galli); details: scale 0 to 100
# Outline: as §1
# [10] = tested on: southern (S.) sandbur (Cenchrus echinatus); details: scale 0 to 100
# Outline: as §1
# [11] = tested on: black mustard (Brassica nigra); details: scale 0 to 100
# Outline: as §1
# [12] = tested on: surinam grass (Brachiaria decumbens); details: scale 0 to 100
# Outline: as §1
# [13] = tested on: common chickweed (Stellaria media); details: 16 g ai/ha, Preemergence, scale 0 to 100
# Outline: as §1
# [14] = tested on: Italian ryegrass (Lolium multiflorum); details: scale 0 to 100
# Outline: as §1
# [15] = tested on: goosegrass (Eleusine indica); details: scale 0 to 100
# Outline: as §1
smiles,measurement,setting,value
Cc1cc(-c2ccc(Cl)cc2)nn1-c1c(OC(=O)C(C)C)cnn(C)c1=O [Compound 34],"Plant response rating, Signalgrass","[1]; 16 g ai/ha, Preemergence",65
same,"Plant response rating, Signalgrass","[1]; 31 g ai/ha, Preemergence",90
same,"Plant response rating, Signalgrass","[1]; 62 g ai/ha, Preemergence",100
same,"Plant response rating, Signalgrass","[1]; Postemergence, 8 g ai/ha",75
same,"Plant response rating, Signalgrass","[1]; Postemergence, 16 g ai/ha",85
same,"Plant response rating, Signalgrass","[1]; Postemergence, 31 g ai/ha",95
same,"Plant response rating, Signalgrass","[1]; Postemergence, 62 g ai/ha",100
same,"Plant response rating, Crabgrass, Naked","[2]; 16 g ai/ha, Preemergence",100
same,"Plant response rating, Crabgrass, Naked","[2]; 31 g ai/ha, Preemergence",100
same,"Plant response rating, Crabgrass, Naked","[2]; 62 g ai/ha, Preemergence",100
same,"Plant response rating, Crabgrass, Naked","[2]; Postemergence, 8 g ai/ha",40
same,"Plant response rating, Crabgrass, Naked","[2]; Postemergence, 16 g ai/ha",80
same,"Plant response rating, Crabgrass, Naked","[2]; Postemergence, 62 g ai/ha",100
same,"Plant response rating, Morningglory","[3]; 16 g ai/ha, Preemergence",0
same,"Plant response rating, Morningglory","[3]; 31 g ai/ha, Preemergence",0
same,"Plant response rating, Morningglory","[3]; 62 g ai/ha, Preemergence",0
same,"Plant response rating, Morningglory","[3]; Postemergence, 8 g ai/ha",0
same,"Plant response rating, Morningglory","[3]; Postemergence, 16 g ai/ha",0
same,"Plant response rating, Morningglory","[3]; Postemergence, 31 g ai/ha",0
same,"Plant response rating, Morningglory","[3]; Postemergence, 62 g ai/ha",30
same,"Plant response rating, Foxtail, Green","[4]; 16 g ai/ha, Preemergence",65
same,"Plant response rating, Foxtail, Green","[4]; 31 g ai/ha, Preemergence",75
same,"Plant response rating, Foxtail, Green","[4]; 62 g ai/ha, Preemergence",100
same,"Plant response rating, Foxtail, Green","[4]; Postemergence, 8 g ai/ha",50
same,"Plant response rating, Foxtail, Green","[4]; Postemergence, 16 g ai/ha",75
same,"Plant response rating, Foxtail, Green","[4]; Postemergence, 31 g ai/ha",95
same,"Plant response rating, Foxtail, Green","[4]; Postemergence, 62 g ai/ha",98
same,"Plant response rating, Johnsongrass","[5]; 16 g ai/ha, Preemergence",50
same,"Plant response rating, Johnsongrass","[5]; 31 g ai/ha, Preemergence",90
same,"Plant response rating, Johnsongrass","[5]; 62 g ai/ha, Preemergence",90
same,"Plant response rating, Johnsongrass","[5]; Postemergence, 8 g ai/ha",10
same,"Plant response rating, Johnsongrass","[5]; Postemergence, 16 g ai/ha",80
same,"Plant response rating, Johnsongrass","[5]; Postemergence, 31 g ai/ha",98
same,"Plant response rating, Johnsongrass","[5]; Postemergence, 62 g ai/ha",100
same,"Plant response rating, Quackgrass","[6]; 16 g ai/ha, Preemergence",20
same,"Plant response rating, Quackgrass","[6]; 31 g ai/ha, Preemergence",50
same,"Plant response rating, Quackgrass","[6]; 62 g ai/ha, Preemergence",70
same,"Plant response rating, Quackgrass","[6]; Postemergence, 8 g ai/ha",0
same,"Plant response rating, Quackgrass","[6]; Postemergence, 16 g ai/ha",0
same,"Plant response rating, Quackgrass","[6]; Postemergence, 31 g ai/ha",30
same,"Plant response rating, Quackgrass","[6]; Postemergence, 62 g ai/ha",40
same,"Plant response rating, Groundsel","[7]; 16 g ai/ha, Preemergence",0
same,"Plant response rating, Groundsel","[7]; 31 g ai/ha, Preemergence",0
same,"Plant response rating, Groundsel","[7]; 62 g ai/ha, Preemergence",0
same,"Plant response rating, Groundsel","[7]; Postemergence, 8 g ai/ha",0
same,"Plant response rating, Groundsel","[7]; Postemergence, 16 g ai/ha",0
same,"Plant response rating, Groundsel","[7]; Postemergence, 31 g ai/ha",0
same,"Plant response rating, Groundsel","[7]; Postemergence, 62 g ai/ha",0
same,"Plant response rating, Itchgrass","[8]; 16 g ai/ha, Preemergence",80
same,"Plant response rating, Itchgrass","[8]; 31 g ai/ha, Preemergence",85
same,"Plant response rating, Itchgrass","[8]; 62 g ai/ha, Preemergence",90
same,"Plant response rating, Itchgrass","[8]; Postemergence, 8 g ai/ha",70
same,"Plant response rating, Itchgrass","[8]; Postemergence, 16 g ai/ha",80
same,"Plant response rating, Itchgrass","[8]; Postemergence, 31 g ai/ha",95
same,"Plant response rating, Itchgrass","[8]; Postemergence, 62 g ai/ha",95
same,"Plant response rating, Barnyardgrass","[9]; 16 g ai/ha, Preemergence",80
same,"Plant response rating, Barnyardgrass","[9]; 31 g ai/ha, Preemergence",100
same,"Plant response rating, Barnyardgrass","[9]; 62 g ai/ha, Preemergence",100
same,"Plant response rating, Barnyardgrass","[9]; Postemergence, 8 g ai/ha",95
same,"Plant response rating, Barnyardgrass","[9]; Postemergence, 16 g ai/ha",100
same,"Plant response rating, Barnyardgrass","[9]; Postemergence, 31 g ai/ha",100
same,"Plant response rating, Barnyardgrass","[9]; Postemergence, 62 g ai/ha",100
same,"Plant response rating, Sandbur, S.","[10]; 16 g ai/ha, Preemergence",75
same,"Plant response rating, Sandbur, S.","[10]; 31 g ai/ha, Preemergence",90
same,"Plant response rating, Sandbur, S.","[10]; 62 g ai/ha, Preemergence",100
same,"Plant response rating, Sandbur, S.","[10]; Postemergence, 8 g ai/ha",75
same,"Plant response rating, Sandbur, S.","[10]; Postemergence, 16 g ai/ha",75
same,"Plant response rating, Sandbur, S.","[10]; Postemergence, 31 g ai/ha",90
same,"Plant response rating, Sandbur, S.","[10]; Postemergence, 62 g ai/ha",100
same,"Plant response rating, Mustard, Black","[11]; 16 g ai/ha, Preemergence",0
same,"Plant response rating, Mustard, Black","[11]; 31 g ai/ha, Preemergence",0
same,"Plant response rating, Mustard, Black","[11]; 62 g ai/ha, Preemergence",0
same,"Plant response rating, Mustard, Black","[11]; Postemergence, 8 g ai/ha",0
same,"Plant response rating, Mustard, Black","[11]; Postemergence, 16 g ai/ha",0
same,"Plant response rating, Mustard, Black","[11]; Postemergence, 31 g ai/ha",0
same,"Plant response rating, Mustard, Black","[11]; Postemergence, 62 g ai/ha",0
same,"Plant response rating, Surinam Grass","[12]; 16 g ai/ha, Preemergence",98
same,"Plant response rating, Surinam Grass","[12]; 31 g ai/ha, Preemergence",100
same,"Plant response rating, Surinam Grass","[12]; 62 g ai/ha, Preemergence",100
same,"Plant response rating, Surinam Grass","[12]; Postemergence, 8 g ai/ha",90
same,"Plant response rating, Surinam Grass","[12]; Postemergence, 16 g ai/ha",98
same,"Plant response rating, Surinam Grass","[12]; Postemergence, 31 g ai/ha",100
same,"Plant response rating, Surinam Grass","[12]; Postemergence, 62 g ai/ha",100
same,"Plant response rating, Chickweed",[13],0
same,"Plant response rating, Ryegrass, Italian","[14]; 16 g ai/ha, Preemergence",80
same,"Plant response rating, Ryegrass, Italian","[14]; 31 g ai/ha, Preemergence",100
same,"Plant response rating, Ryegrass, Italian","[14]; 62 g ai/ha, Preemergence",100
same,"Plant response rating, Ryegrass, Italian","[14]; Postemergence, 8 g ai/ha",60
same,"Plant response rating, Ryegrass, Italian","[14]; Postemergence, 16 g ai/ha",95
same,"Plant response rating, Ryegrass, Italian","[14]; Postemergence, 31 g ai/ha",100
same,"Plant response rating, Ryegrass, Italian","[14]; Postemergence, 62 g ai/ha",100
same,"Plant response rating, Goosegrass","[15]; 16 g ai/ha, Preemergence",65
same,"Plant response rating, Goosegrass","[15]; 31 g ai/ha, Preemergence",95
same,"Plant response rating, Goosegrass","[15]; 62 g ai/ha, Preemergence",100
same,"Plant response rating, Goosegrass","[15]; Postemergence, 8 g ai/ha",0
same,"Plant response rating, Goosegrass","[15]; Postemergence, 16 g ai/ha",20
same,"Plant response rating, Goosegrass","[15]; Postemergence, 31 g ai/ha",80
same,"Plant response rating, Goosegrass","[15]; Postemergence, 62 g ai/ha",80
